Patent US12049439B2 (OrsoBio, Inc., priority 2018, dated 2024)

Test system: PC-3 cells
Test: PC-3 Oxygen Rate Consumption (OCR) Assay
Format: cell-based
Conditions: Homo sapiens, 0.05 h, medium with 2% FBS, OCR at 3-min post-injection normalized to % increase over DMSO-treated cells, concentration for half-maximal OCR increase, read-out: EC50-PC3-OCR-FBS-3min
Procedure, shortened: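 PC-3 cells seeded a day before, equilibrated 1 h in XF medium with 10 mM glucose, 1 mM pyruvate, 2% FBS, non-CO2 at 37 °C. Compound injected after basal OCR reads; OCR at 3 min post-injection normalized as % increase over DMSO, EC50 = half-maximal increase; six replicates.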

O=C(NC12CC(C(F)(F)F)(C1)C2)c1ccc(C(F)(F)F)cc1NS(=O)(=O)c1ccc(S(=O)(=O)C(F)(F)F)cc1 [Example 33, 4-(trifluoromethyl)-N-(3-(trifluoromethyl)bicyclo[1.1.1]pentan-1-yl)-2-((4-((trifluoromethyl)sulfonyl)phenyl)sulfonamido)benzamide]
EC50: 1.93 µM

Cc1ncc(S(=O)(=O)Nc2cc(C(F)(F)F)ccc2C(=O)NC23CC(C(F)(F)F)(C2)C3)s1 [Example 62, 2-((2-methylthiazole)-5-sulfonamido)-4-(trifluoromethyl)-N-(3-(trifluoromethyl)bicyclo[1.1.1]pentan-1-yl)benzamide]
EC50: 1.53 µM

COCCS(=O)(=O)Nc1ccc(C(F)(F)F)cc1C(=O)NC12CCC(C#N)(CC1)CC2 [Example 128, N-(4-cyanobicyclo[2.2.2]octan-1-yl)-2-((2-methoxyethyl)sulfonamido)-5-(trifluoromethyl)benzamide]
EC50: 15.4 µM

CS(=O)(=O)Nc1ccc(F)cc1C(=O)NC12CC(C(F)(F)F)(C1)C2 [Example 140, 5-fluoro-2-(methylsulfonamido)-N-(3-(trifluoromethyl)bicyclo[1.1.1]pentan-1-yl)benzamide]
EC50: 36.1 µM

O=C(NC12CC(C(F)(F)F)(C1)C2)c1ccc(C(F)(F)F)cc1NS(=O)(=O)c1ccc(F)cc1 [Example 109]
EC50: 0.38 µM

CC1(S(=O)(=O)Nc2cc(C(F)(F)F)ccc2C(=O)NC23CCC(C#N)(CC2)CC3)CC1 [Example 67, N-(4-cyanobicyclo[2.2.2]octan-1-yl)-2-((1-methylcyclopropane)-1-sulfonamido)-4-(trifluoromethyl)benzamide]
EC50: 5.92 µM

N#CC12CCC(NC(=O)c3cc(C(F)(F)F)ccc3NS(=O)(=O)C3CCOCC3)(CC1)CC2 [Example 204, N-(4-cyanobicyclo[2.2.2]octan-1-yl)-2-((tetrahydro-2H-pyran)-4-sulfonamido)-5-(trifluoromethyl)benzamide]
EC50: 15.7 µM

O=C(NC12CC(c3ccccc3)(C1)C2)c1ccc(C(F)(F)F)cc1NS(=O)(=O)c1ccc(OC(F)(F)F)cc1 [Example 31, N-(3-phenylbicyclo[1.1.1]pentan-1-yl)-2-((4-(trifluoromethoxy)phenyl)sulfonamido)-4-(trifluoromethyl)benzamide]
EC50: 0.595 µM

N#CC12CCC(NC(=O)c3cc(F)ccc3NS(=O)(=O)CCC(F)(F)F)(CC1)C2 [Example 222, N-(4-cyanobicyclo[2.2.1]heptan-1-yl)-5-fluoro-2-((3,3,3-trifluoropropyl)sulfonamido)benzamide]
EC50: 5.7 µM

CCS(=O)(=O)Nc1cc(F)c(F)cc1C(=O)NC12CCC(C#N)(CC1)CC2 [Example 216, N-(4-cyanobicyclo[2.2.2]octan-1-yl)-4,5-difluoro-2-(ethylsulfonamido)benzamide]
EC50: 16.9 µM

O=C(NC12CCC(C(F)(F)F)(CC1)CC2)c1ccc(F)cc1NS(=O)(=O)N1CCS(=O)(=O)CC1 [Example 231, 2-((1,1-dioxidothiomorpholine)-4-sulfonamido)-4-fluoro-N-(4-(trifluoromethyl)bicyclo[2.2.2]octan-1-yl)benzamide]
EC50: 4.69 µM

CS(=O)(=O)Nc1ccc(C(F)(F)F)cc1C(=O)NC12CCC(C#N)(CC1)C2 [Example 173, N-(4-cyanobicyclo[2.2.1]heptan-1-yl)-2-(methylsulfonamido)-5-(trifluoromethyl)benzamide]
EC50: 26.4 µM

N#CC12CCC(NC(=O)c3cc(C(F)(F)F)ccc3NS(=O)(=O)c3ccccc3)(CC1)CC2 [Example 122, N-(4-cyanobicyclo[2.2.2]octan-1-yl)-2-(phenylsulfonamido)-5-(trifluoromethyl)benzamide]
EC50: 1.52 µM

O=C(NC12CC(C(F)(F)F)(C1)C2)c1ccc(C(F)(F)F)cc1NS(=O)(=O)c1ccc(S(=O)(=O)C(F)F)cc1 [Example 34, 2-((4-((difluoromethyl)sulfonyl)phenyl)sulfonamido)-4-(trifluoromethyl)-N-(3-(trifluoromethyl)bicyclo[1.1.1]pentan-1-yl)benzamide]
EC50: 2.71 µM

CS(=O)(=O)Nc1cc(OC(F)(F)F)ccc1C(=O)NC12CCC(C#N)(CC1)CC2 [Example 203, N-(4-cyanobicyclo[2.2.2]octan-1-yl)-2-(methylsulfonamido)-4-(trifluoromethoxy)benzamide]
EC50: 23 µM

NC(=O)c1ccc(S(=O)(=O)Nc2cc(C(F)(F)F)ccc2C(=O)NC23CC(C(F)(F)F)(C2)C3)cc1 [Example 53, 2-((4-carbamoylphenyl)sulfonamido)-4-(trifluoromethyl)-N-(3-(trifluoromethyl)bicyclo[1.1.1]pentan-1-yl)benzamide]
EC50: 46.1 µM

CS(=O)(=O)c1ccc(S(=O)(=O)Nc2cc(C(F)(F)F)ccc2C(=O)NC23CC(C(F)(F)F)(C2)C3)cc1 [Example 8, 2-((4-(methylsulfonyl)phenyl)sulfonamido)-4-(trifluoromethyl)-N-(3-(trifluoromethyl)bicyclo[1.1.1]pentan-1-yl)benzamide]
EC50: 4.1 µM

CS(=O)(=O)Nc1cc(F)ccc1C(=O)NC12CC(C(F)(F)F)(C1)C2 [Example 1, 4-fluoro-2-(methylsulfonamido)-N-(3-(trifluoromethyl)bicyclo[1.1.1]pentan-1-yl)benzamide]
EC50: 13.1 µM

CC1(S(=O)(=O)Nc2cc(C(F)(F)F)ccc2C(=O)NC23CC(C2)C3)CC1 [Example 66, N-(bicyclo[1.1.1]pentan-1-yl)-2-((1-methylcyclopropane)-1-sulfonamido)-4-(trifluoromethyl)benzamide]
EC50: 8.35 µM

CC(C)S(=O)(=O)Nc1cc(C(F)(F)F)ccc1C(=O)NC12CC(c3ccccc3)(C1)C2 [Example 54, 2-((1-methylethyl)sulfonamido)-N-(3-phenylbicyclo[1.1.1]pentan-1-yl)-4-(trifluoromethyl)benzamide]
EC50: 1.22 µM

N#CC12CCC(NC(=O)c3cc(C(F)(F)F)ccc3NS(=O)(=O)C3CC3)(CC1)CC2 [Example 125, N-(4-cyanobicyclo[2.2.2]octan-1-yl)-2-(cyclopropanesulfonamido)-5-(trifluoromethyl)benzamide]
EC50: 12.4 µM

CCCS(=O)(=O)Nc1ccc(C#N)cc1C(=O)NC12CCC(C#N)(CC1)CC2 [Example 104, 5-cyano-N-(4-cyanobicyclo[2.2.2]octan-1-yl)-2-(propylsulfonamido)benzamide]
EC50: 37.5 µM

N#CC1(S(=O)(=O)Nc2ccc(Cl)cc2C(=O)NC23CCC(C(F)(F)F)(CC2)CC3)CC1 [Example 209, 5-chloro-2-((1-cyanocyclopropane)-1-sulfonamido)-N-(4-(trifluoromethyl)bicyclo[2.2.2]octan-1-yl)benzamide]
EC50: 0.648 µM

CC(C)(C)S(=O)(=O)Nc1ccc(Br)cc1C(=O)NC12CC(c3ccccc3)(C1)C2 [Example 94, 5-bromo-2-((1,1-dimethylethyl)sulfonamido)-N-(3-phenylbicyclo[1.1.1]pentan-1-yl)benzamide]
EC50: 6.16 µM

Cc1ccc(C(=O)NC23CC(C(F)(F)F)(C2)C3)c(NS(=O)(=O)c2ccncc2)c1 [Example 65, 4-methyl-2-(pyridine-4-sulfonamido)-N-(3-(trifluoromethyl)bicyclo[1.1.1]pentan-1-yl)benzamide]
EC50: 21.8 µM

N#CC12CCC(NC(=O)c3ccc(Cl)cc3NS(=O)(=O)CCC(F)(F)F)(CC1)CC2 [Example 135, 4-chloro-N-(4-cyanobicyclo[2.2.2]octan-1-yl)-2-((3,3,3-trifluoropropyl)sulfonamido)benzamide]
EC50: 1.62 µM

N#Cc1ccc(S(=O)(=O)Nc2cc(C(F)(F)F)ccc2C(=O)NC23CC(C(F)(F)F)(C2)C3)cc1 [Example 158, 2-((4-cyanophenyl)sulfonamido)-4-(trifluoromethyl)-N-(3-(trifluoromethyl)bicyclo[1.1.1]pentan-1-yl)benzamide]
EC50: 1.43 µM

CC(C)(C)c1ccc(S(=O)(=O)Nc2cc(C(F)(F)F)ccc2C(=O)NC23CC(C#N)(C2)C3)cc1 [Example 7, 2-((4-(tert-butyl)phenyl)sulfonamido)-N-(3-cyanobicyclo[1.1.1]pentan-1-yl)-4-(trifluoromethyl)benzamide]
EC50: 0.813 µM

CS(=O)(=O)c1ccc(S(=O)(=O)Nc2cc(C(F)(F)F)ccc2C(=O)NC23CC(c4ccccc4)(C2)C3)cc1 [Example 11, 2-((4-(methylsulfonyl)phenyl)sulfonamido)-N-(3-phenylbicyclo[1.1.1]pentan-1-yl)-4-(trifluoromethyl)benzamide]
EC50: 1.92 µM

CS(=O)(=O)Nc1cccc(F)c1C(=O)NC12CC(C(F)(F)F)(C1)C2 [Example 142, 2-fluoro-6-(methylsulfonamido)-N-(3-(trifluoromethyl)bicyclo[1.1.1]pentan-1-yl)benzamide]
EC50: ≥ 100 µM

N#CC12CCC(NC(=O)c3cc(C(F)(F)F)ccc3NS(=O)(=O)Cc3ccccc3)(CC1)CC2 [Example 196, N-(4-cyanobicyclo[2.2.2]octan-1-yl)-2-((phenylmethyl)sulfonamido)-5-(trifluoromethyl)benzamide]
EC50: 1.38 µM

CS(=O)(=O)N1C2CCC1CN(S(=O)(=O)Nc1ccc(C(F)(F)F)cc1C(=O)NC13CCC(C#N)(CC1)CC3)C2 [Example 246, N-(4-cyanobicyclo[2.2.2]octan-1-yl)-2-(((1R,5S)-8-(methylsulfonyl)-3,8-diazabicyclo[3.2.1]octane)-3-sulfonamido)-5-(trifluoromethyl)benzamide]
EC50: 14.5 µM

CCCS(=O)(=O)Nc1ccc(C(F)(F)F)cc1C(=O)NC12CCC(C#N)(CC1)CC2 [Example 126, N-(4-cyanobicyclo[2.2.2]octan-1-yl)-2-(propylsulfonamido)-5-(trifluoromethyl)benzamide]
EC50: 5.12 µM

CS(=O)(=O)c1ccc(NS(=O)(=O)c2ccc(S(F)(F)(F)(F)F)cc2)c(C(=O)NC23CC(C(F)(F)F)(C2)C3)c1 [Example 150, 5-(methylsulfonyl)-2-((4-(pentafluoro-λ^6-sulfanyl)phenyl)sulfonamido)-N-(3-(trifluoromethyl)bicyclo[1.1.1]pentan-1-yl)benzamide]
EC50: ≥ 20 µM
